Source: ChEMBL document CHEMBL1134983, “Core-modified sordaricin derivatives: synthesis and antifungal activity” (2002)
Converted amounts (≈) assume the structure as drawn.

Tests used:
Assay type in all cases: functional
Nakaseomyces glabratus = test: Anti-fungal activity against Candida glabrata A28790 (WT)
Candida albicans [1] = test: Anti-fungal activity against Candida albicans A28660 (WT)
Candida albicans [2] = test: Anti-fungal activity against Candida albicans A28235 (WT)

Structure (SMILES)	MIC (Nakaseomyces glabratus) [µg/mL]	MIC (Candida albicans [1]) [µg/mL]	MIC (Candida albicans [2]) [µg/mL]
CCCCCCOCC12C[C@@H]3[C@H](C)[C@H](F)C[C@H]3C3(C=O)CC1C=C(C(C)C)[C@@]23C(=O)O	1 (≈ 2.3 µM)	0.5 (≈ 1.15 µM)	0.25 (≈ 0.575 µM)
CCCCCCOCC12CC3=C(C)CC[C@H]3C3(C=O)CC1C=C(C(C)C)[C@@]23C(=O)O	8 (≈ 19.3 µM)	0.5 (≈ 1.21 µM)	0.125 (≈ 0.302 µM)
CCCCCCOCC12C[C@@H]3[C@H](C)[C@@H](O)C[C@H]3C3(C=O)CC1C=C(C(C)C)[C@@]23C(=O)O	> 128	64 (≈ 148 µM)	32 (≈ 74 µM)
COC1C(O)[C@H](O)[C@H](OC[C@@]23C[C@@H]4[C@H](C)CC[C@H]4[C@@]4(C=O)CC2C=C(C(C)C)[C@@]34C(=O)O)O[C@@H]1C (single isomer, unassigned) [SORDARIN]	> 128		16 (≈ 32.5 µM)
CCCCCCOCC12C[C@@H]3[C@H](C)C(=O)C[C@H]3C3(C=O)CC1C=C(C(C)C)[C@@]23C(=O)O	32 (≈ 74.3 µM)	8 (≈ 18.6 µM)	4 (≈ 9.29 µM)
CCCCCCOCC12C[C@H]3[C@@H](CC[C@]3(C)O)C3(C=O)CC1C=C(C(C)C)[C@@]23C(=O)O	32 (≈ 74 µM)	8 (≈ 18.5 µM)	4 (≈ 9.25 µM)
CCCCCCOCC12C[C@@H]3[C@H](C)CC[C@H]3C3(C=O)CC1C=C(C(C)C)[C@@]23C(=O)O	0.125 (≈ 0.3 µM)	0.06 (≈ 0.144 µM)	0.06 (≈ 0.144 µM)
CCCCCCOCC12C[C@@]34[C@@H](CC[C@]3(C)C4(Cl)Cl)C3(C=O)CC1C=C(C(C)C)[C@@]23C(=O)O	64 (≈ 129 µM)	32 (≈ 64.3 µM)	32 (≈ 64.3 µM)
